We go through two compounds from paper PMC3328449, “Inhibition of Diacylglycerol–Sensitive TRPC Channels by Synthetic and Natural Steroids” (PLoS ONE, 2012).

For assay [1], the target named is T1, hTRPC3 (Homo sapiens, UniProt Q13507).
T1 construct: expressed in transfected cells
T1 sequence (Q13507 1-848 isoform Q13507-3): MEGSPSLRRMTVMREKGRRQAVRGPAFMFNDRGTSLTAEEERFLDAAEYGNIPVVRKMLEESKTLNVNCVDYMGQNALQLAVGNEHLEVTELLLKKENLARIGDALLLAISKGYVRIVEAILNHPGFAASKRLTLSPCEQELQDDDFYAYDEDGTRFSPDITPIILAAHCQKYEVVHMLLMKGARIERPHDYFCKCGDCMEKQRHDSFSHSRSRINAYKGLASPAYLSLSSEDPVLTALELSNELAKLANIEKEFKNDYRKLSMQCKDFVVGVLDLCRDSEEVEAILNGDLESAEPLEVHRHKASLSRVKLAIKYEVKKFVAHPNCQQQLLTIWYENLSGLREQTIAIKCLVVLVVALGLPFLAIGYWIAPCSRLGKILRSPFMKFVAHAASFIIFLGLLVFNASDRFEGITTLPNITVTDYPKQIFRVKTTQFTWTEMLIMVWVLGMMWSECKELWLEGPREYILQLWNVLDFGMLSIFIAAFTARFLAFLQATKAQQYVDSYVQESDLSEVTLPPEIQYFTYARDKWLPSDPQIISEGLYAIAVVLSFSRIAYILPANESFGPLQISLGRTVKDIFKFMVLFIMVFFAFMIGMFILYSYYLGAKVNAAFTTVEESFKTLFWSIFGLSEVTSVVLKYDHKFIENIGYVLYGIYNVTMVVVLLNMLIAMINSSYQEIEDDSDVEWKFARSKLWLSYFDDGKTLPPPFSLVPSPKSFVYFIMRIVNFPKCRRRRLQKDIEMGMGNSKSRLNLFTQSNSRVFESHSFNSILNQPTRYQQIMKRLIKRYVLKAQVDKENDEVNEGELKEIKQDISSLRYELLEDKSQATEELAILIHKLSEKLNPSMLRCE
The assay is described as follows: Whole-cell patch clamp, AlF4- evoked TRPC3 currents. The settings on record: 10 µM, AlF4- infusion. The assay is classed as cell-based. From the text: hTRPC3 (GenBank accession number NM_003305) was stably expressed in chinese hamster ovary (CHO) cells using a proprietary high expression vector (Steinbeis –Transferzentrum für Angewandte Biologische Chemie, Mannheim, Germany).
The whole-cell patch clamp technique was employed to measure ion currents from single cells. Heat-polished patch pipettes with resistances of 2–4 MΩ were pulled from borosilicate glass capillaries (Hilgenberg, Malsfeld, Germany) using a DMZ-Universal puller (Zeitz-Instruments, Munich, Germany) and filled with standard intracellular solution containing: 120 mM CsOH, 120 mM gluconic acid, 2 mM MgCl2, 3 mM CaCl2, 5 mM Cs4-BAPTA, 10 mM HEPES (pH 7.4 adjusted with gluconic acid). For agonist-independent stimulation of TRPC currents the intracellular solution was supplemented with 30 µM AlCl3 and 10 mM NaF and cells were infused with AlF4 ^− through the patch pipette. […]
Cells grown on poly-L-lysine-coated coverslips were continuously superfused with extracellular solution and substances were applied using an ALA BPS-8 perfusion system (ALA Scientific Instruments, Westbury, USA). […] Cells were held at −70 mV, and current-voltage (I–V) relationships were routinely measured every 2 or 3 s by applying voltage ramps (180 ms) from −100 mV to +80 mV. […]
For orientation: In patch-clamp work, channel activity is measured electrically.

Assay [2] concerns the target T1, hTRPC3. The assay is described as follows: OAG-induced Ca2+ entry, fluo-4 fluorometric imaging plate reader, TRPC3 CHO cells. The format is cell-based. Particulars: for IC50: TRPC3 CHO cells, fluo-4, area under the curve, 10 min pre-incubation, read-out: IC50, inhibition of OAG-induced Ca2+ entry via TRPC3; for Hill slope n, inhibition of TRPC3-mediated Ca2+ entry: fit to Hill model. The method, then:
hTRPC3 (GenBank accession number NM_003305) was stably expressed in chinese hamster ovary (CHO) cells using a proprietary high expression vector (Steinbeis -Transferzentrum für Angewandte Biologische Chemie, Mannheim, Germany). Cells grown to an almost confluent monolayer on black poly-D-lysine coated 96-well plates (Greiner, Frickenhausen, Germany) were washed with standard extracellular solution (140 mM NaCl, 1 mM MgCl2, 5.4 mM KCl, 2 mM CaCl2, 10 mM HEPES, 10 mM glucose, pH 7.35) and stained (30 min, room temperature) with dye solution (2 μM fluo-4 AM, 0.02% pluronic F127, 0.1% bovine serum albumin in standard extracellular solution). Cells were washed and either incubated with standard extracellular solution only or with different concentrations of test compounds for 10 min. Fluo-4 fluorescence was excited at 488 nm with an argon laser and measured using a fluorometric imaging plate reader (Molecular Devices, Sunnyvale, USA). All fluorometric measurements were performed at room temperature. […] Baseline fluorescence in non-OAG-stimulated cells and OAG-stimulated Ca^2+ influx into control cells not treated with inhibitors were defined as 0% and 100% influx, respectively. For statistical analysis, analysis of variance was performed with Origin 6.0 software (Microcal Software Inc., Northampton, USA). […] Averaged data is expressed as means ± SEM.

“And” between values parts separate entries of the source, which are not always exact repeats. Identical values can stand only once.

Consider `C#C[C@]1(OC(C)=O)CC[C@H]2[C@@H]3CCC4=CC(=NO)CC[C@@H]4[C@H]3CC[C@@]21CC` (mixture of isomers) [norgestimate], for which, at hTRPC3 [1], the “Inhibition of TRPC3 currents” value is “almost completely inhibited”. The “Effect on TRPC3-mediated Ca2+ entry” value at hTRPC3 [2] (30 µM pre-incubation, OAG-induced) is “significantly reduced”. Moreover, on hTRPC3 [2], the IC50 was 3 to 5 µM and 3 µM; the “Hill slope n, inhibition of TRPC3-mediated Ca2+ entry” value is recorded as 1.67.
Turning to `CC(=O)[C@H]1CC[C@H]2[C@@H]3CCC4=CC(=O)CC[C@]4(C)[C@H]3CC[C@]12C` [progesterone], at hTRPC3 [2], the IC50 worked out at 12.4 µM and the “Hill slope n, inhibition of TRPC3-mediated Ca2+ entry” value is 3.6.

As a reminder, the IC50 is the midpoint of a concentration-inhibition curve.
